Data reported in article PMC3022706 (BMC Microbiology, 2010).

T1: Dld (Cg1027), quinone-dependent D-lactate dehydrogenase (Corynebacterium glutamicum, UniProt Q8NRY8)
T1 construct: PCR fragment printed as 1,020 bp but gene coordinates 955683-957398 imply 571 residues; reverse primer dld2 lacks stop codon; abstract also misprints Cg1067
T1 sequence (Q8NRY8 1-571): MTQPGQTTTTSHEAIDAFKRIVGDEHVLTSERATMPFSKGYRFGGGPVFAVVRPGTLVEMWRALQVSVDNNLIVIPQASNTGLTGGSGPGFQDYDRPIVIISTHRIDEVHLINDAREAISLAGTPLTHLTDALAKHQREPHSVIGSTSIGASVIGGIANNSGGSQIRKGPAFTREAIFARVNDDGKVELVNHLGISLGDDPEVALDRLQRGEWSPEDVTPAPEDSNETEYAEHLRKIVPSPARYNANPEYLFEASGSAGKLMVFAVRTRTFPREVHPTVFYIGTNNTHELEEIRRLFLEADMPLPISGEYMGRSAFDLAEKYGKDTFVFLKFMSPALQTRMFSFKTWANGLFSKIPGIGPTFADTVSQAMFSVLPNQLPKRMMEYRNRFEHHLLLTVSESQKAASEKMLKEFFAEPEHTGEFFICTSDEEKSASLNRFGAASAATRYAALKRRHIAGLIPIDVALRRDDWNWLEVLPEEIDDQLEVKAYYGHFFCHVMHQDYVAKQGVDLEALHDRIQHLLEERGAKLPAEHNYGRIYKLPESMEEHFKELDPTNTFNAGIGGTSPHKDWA


Experiments:
[1] = biological target: T1, Dld (Cg1027), quinone-dependent D-lactate dehydrogenase; test: absorption spectrum of purified protein ([…] and […] nm); assay type: binding; conditions: bound cofactor, co-purified; non-covalent; identified from spectrum and FAD domain
purified protein = substrate: C[C@@H](O)C(=O)O; test: purified protein; conditions: 2,6-dichloroindophenol as electron acceptor, 30 °C, potassium phosphate, pH optimum 7.0, Discussion prints 0.62 mM

| Molecule | absorption spectrum of purified protein (375 and 445 nm) [1] | Km (purified protein) |
| --- | --- | --- |
| Cc1cc2nc3c(=O)[nH]c(=O)nc-3n(C[C@H](O)[C@H](O)[C@H](O)COP(=O)(O)OP(=O)(O)OC[C@H]3O[C@@H](n4cnc5c(N)ncnc54)[C@H](O)[C@@H]3O)c2cc1C [FAD] | These results suggest that D-lactate dehydrogenase from C. glutamicum contains FAD as a bound cofactor | – |
| Dld (Cg1027), quinone-dependent D-lactate dehydrogenase (Corynebacterium glutamicum ATCC 13032) (protein) MTQPGQTTTTSHEAIDAFKRIVGDEHVLTSERATMPFSKGYRFGGGPVFAVVRPGTLVEMWRALQVSVDNNLIVIPQASNTGLTGGSGPGFQDYDRPIVIISTHRIDEVHLINDAREAISLAGTPLTHLTDALAKHQREPHSVIGSTSIGASVIGGIANNSGGSQIRKGPAFTREAIFARVNDDGKVELVNHLGISLGDDPEVALDRLQRGEWSPEDVTPAPEDSNETEYAEHLRKIVPSPARYNANPEYLFEASGSAGKLMVFAVRTRTFPREVHPTVFYIGTNNTHELEEIRRLFLEADMPLPISGEYMGRSAFDLAEKYGKDTFVFLKFMSPALQTRMFSFKTWANGLFSKIPGIGPTFADTVSQAMFSVLPNQLPKRMMEYRNRFEHHLLLTVSESQKAASEKMLKEFFAEPEHTGEFFICTSDEEKSASLNRFGAASAATRYAALKRRHIAGLIPIDVALRRDDWNWLEVLPEEIDDQLEVKAYYGHFFCHVMHQDYVAKQGVDLEALHDRIQHLLEERGAKLPAEHNYGRIYKLPESMEEHFKELDPTNTFNAGIGGTSPHKDWA | – | 610 µM |
